Legend:
[1] = biological target: T1, D384GB (D384 with GFP at the linker N-terminus and BFP in AAA2) (Homo sapiens, UniProt Q14204); assay: BFP-GFP FRET efficiency of linker swing against ATP, steady state; format: biochemical; settings: no microtubules; ATP-regenerating system (creatine phosphate / creatine phosphate kinase); 100 nM dynein; conformational read-out, not a turnover Km; read-out: Km^E (k1/kT)
T1 construct: gene DYNC1H1; Gly1288-Glu4646; N-terminal FLAG, BCCP and AcGFP kept; BFP inserted between Glu2404 and Gly2405 (AAA2); Sf9; monomer

[2] = biological target: T1, D384GB (D384 with GFP at the linker N-terminus and BFP in AAA2); assay: ATPase assay, phosphate release (EnzChek, absorbance […] nm); format: biochemical; settings: basal, no microtubules; 25 °C; read-out: Michaelis-Menten constant

T1 sequence (Q14204 1288-2404): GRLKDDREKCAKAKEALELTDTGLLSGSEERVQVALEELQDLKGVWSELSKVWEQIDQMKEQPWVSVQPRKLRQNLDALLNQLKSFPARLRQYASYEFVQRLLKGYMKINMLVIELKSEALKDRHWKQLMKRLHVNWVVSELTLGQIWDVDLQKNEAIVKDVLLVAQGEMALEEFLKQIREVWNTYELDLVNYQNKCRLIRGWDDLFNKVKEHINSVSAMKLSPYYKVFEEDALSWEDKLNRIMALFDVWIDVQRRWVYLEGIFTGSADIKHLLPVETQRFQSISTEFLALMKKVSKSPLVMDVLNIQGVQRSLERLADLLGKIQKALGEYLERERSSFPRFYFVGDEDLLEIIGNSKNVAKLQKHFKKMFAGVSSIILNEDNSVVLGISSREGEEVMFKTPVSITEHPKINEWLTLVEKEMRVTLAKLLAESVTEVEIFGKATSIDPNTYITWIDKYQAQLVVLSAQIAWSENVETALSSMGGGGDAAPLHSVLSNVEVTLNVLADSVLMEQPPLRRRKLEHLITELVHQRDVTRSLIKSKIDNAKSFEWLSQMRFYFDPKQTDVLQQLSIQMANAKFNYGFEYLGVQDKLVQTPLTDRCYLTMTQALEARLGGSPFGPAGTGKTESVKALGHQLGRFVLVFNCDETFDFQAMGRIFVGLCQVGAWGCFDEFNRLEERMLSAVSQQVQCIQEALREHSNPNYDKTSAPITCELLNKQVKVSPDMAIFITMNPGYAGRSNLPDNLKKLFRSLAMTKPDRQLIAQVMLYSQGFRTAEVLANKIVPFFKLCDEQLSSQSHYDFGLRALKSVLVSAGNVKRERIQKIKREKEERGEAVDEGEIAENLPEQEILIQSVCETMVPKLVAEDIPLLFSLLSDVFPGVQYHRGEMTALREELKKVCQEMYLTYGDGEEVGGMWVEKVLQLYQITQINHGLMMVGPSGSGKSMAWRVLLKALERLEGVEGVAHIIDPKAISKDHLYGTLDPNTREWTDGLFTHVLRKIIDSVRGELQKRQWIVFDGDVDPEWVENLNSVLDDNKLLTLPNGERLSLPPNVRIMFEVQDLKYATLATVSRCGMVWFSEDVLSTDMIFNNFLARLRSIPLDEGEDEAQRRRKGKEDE
T1 sequence (Q14204 2405-4646): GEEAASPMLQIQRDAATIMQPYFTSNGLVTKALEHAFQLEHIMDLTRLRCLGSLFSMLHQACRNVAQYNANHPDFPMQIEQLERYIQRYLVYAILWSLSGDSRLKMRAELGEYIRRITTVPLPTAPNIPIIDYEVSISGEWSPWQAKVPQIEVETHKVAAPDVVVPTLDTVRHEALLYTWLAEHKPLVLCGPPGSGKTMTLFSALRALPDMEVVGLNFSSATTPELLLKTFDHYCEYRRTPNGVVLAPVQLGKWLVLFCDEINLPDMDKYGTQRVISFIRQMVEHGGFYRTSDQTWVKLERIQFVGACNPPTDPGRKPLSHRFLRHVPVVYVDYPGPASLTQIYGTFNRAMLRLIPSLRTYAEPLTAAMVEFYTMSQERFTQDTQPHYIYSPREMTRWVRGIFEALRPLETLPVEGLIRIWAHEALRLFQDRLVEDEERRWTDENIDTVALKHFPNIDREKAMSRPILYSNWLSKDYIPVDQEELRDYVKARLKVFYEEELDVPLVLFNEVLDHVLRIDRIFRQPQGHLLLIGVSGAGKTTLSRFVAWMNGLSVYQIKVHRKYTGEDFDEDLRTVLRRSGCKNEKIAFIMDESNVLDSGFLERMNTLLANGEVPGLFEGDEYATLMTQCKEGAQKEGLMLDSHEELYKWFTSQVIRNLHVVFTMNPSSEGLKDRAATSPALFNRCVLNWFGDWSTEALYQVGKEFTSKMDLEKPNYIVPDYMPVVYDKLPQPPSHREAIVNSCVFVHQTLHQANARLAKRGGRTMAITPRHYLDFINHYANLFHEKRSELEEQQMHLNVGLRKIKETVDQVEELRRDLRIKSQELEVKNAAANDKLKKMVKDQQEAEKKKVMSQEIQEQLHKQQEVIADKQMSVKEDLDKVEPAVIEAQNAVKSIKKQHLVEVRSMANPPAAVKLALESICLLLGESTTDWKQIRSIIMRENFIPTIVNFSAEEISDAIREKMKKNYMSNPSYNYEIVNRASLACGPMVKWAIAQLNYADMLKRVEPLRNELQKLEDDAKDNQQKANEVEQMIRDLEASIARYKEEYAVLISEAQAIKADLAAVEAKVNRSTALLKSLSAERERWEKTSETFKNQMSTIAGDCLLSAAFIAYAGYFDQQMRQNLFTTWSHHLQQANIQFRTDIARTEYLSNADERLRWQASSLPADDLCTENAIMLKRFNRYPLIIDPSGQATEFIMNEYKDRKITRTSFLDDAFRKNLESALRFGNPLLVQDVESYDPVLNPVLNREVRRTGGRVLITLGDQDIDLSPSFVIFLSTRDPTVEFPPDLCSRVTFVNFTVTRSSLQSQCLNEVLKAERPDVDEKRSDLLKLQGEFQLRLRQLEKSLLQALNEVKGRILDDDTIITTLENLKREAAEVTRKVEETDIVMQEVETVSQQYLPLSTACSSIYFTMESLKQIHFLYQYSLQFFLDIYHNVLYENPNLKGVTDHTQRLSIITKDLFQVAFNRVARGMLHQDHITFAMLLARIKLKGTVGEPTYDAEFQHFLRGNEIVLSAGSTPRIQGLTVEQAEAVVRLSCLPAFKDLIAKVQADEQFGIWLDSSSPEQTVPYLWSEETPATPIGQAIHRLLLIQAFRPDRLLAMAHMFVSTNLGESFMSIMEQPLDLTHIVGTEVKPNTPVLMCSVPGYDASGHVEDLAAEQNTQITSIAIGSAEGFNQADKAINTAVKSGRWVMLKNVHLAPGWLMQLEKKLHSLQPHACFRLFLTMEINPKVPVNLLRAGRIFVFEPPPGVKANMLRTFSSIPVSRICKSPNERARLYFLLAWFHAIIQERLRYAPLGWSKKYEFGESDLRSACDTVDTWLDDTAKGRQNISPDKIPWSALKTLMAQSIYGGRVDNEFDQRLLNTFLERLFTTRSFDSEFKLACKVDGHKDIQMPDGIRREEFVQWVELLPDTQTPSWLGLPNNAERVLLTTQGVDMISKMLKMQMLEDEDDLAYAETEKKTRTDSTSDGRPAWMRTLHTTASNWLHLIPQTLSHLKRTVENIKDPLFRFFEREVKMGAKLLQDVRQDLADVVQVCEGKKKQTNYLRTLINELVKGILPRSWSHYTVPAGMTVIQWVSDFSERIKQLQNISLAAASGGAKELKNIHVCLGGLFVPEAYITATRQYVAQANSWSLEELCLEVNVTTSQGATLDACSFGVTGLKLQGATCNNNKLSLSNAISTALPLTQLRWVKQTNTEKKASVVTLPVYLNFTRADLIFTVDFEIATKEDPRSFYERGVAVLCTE

Km [1]: 3.3 ± 0.3 µM
Km [2]: 27 ± 3 µM
SMILES: Nc1ncnc2c1ncn2[C@@H]1O[C@H](COP(=O)(O)OP(=O)(O)OP(=O)(O)O)[C@@H](O)[C@H]1O [ATP]

From paper PMC6218510, “Step Sizes and Rate Constants of Single-headed Cytoplasmic Dynein Measured with Optical Tweezers” (Scientific Reports, 2018)
